For one test, the target named is T1, AACS (Homo sapiens, UniProt Q86V21).
T1 construct: purchased Cusabio, China
T1 sequence (Q86V21 1-672): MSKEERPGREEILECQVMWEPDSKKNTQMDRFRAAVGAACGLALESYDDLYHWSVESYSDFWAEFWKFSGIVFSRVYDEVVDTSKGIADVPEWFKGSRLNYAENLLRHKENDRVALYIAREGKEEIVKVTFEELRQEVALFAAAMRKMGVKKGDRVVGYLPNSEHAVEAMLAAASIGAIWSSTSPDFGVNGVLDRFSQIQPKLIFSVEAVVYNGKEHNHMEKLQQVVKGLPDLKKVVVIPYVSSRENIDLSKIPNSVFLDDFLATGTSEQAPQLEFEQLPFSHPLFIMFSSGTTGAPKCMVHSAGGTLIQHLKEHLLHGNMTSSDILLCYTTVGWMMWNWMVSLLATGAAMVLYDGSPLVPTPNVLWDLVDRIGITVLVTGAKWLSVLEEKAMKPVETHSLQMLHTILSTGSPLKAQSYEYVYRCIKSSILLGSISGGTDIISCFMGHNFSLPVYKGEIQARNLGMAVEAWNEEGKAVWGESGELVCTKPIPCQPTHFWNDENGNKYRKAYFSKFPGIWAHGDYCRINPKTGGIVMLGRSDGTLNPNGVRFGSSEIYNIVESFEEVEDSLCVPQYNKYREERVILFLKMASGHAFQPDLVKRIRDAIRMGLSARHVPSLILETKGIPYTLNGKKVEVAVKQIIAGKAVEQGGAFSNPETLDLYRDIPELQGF
The test is described as follows: Acyl-CoA synthetases selectivity panel: AACS. It is filed as biochemical. Conditions: human recombinant protein, substrate acetoacetyl, AMP readout by HPLC; read-out: HPLC based activity assays IC50 (UM) AACS. The text has this: (§1) The biochemical assays for testing the selectivity of the compounds according to this invention, were done using human recombinant proteins (Cusabio, China). The readout of the assays was AMP levels, the […] of the reactions, by HPLC method. The acyl substrates (Sigma-Aldrich) of the assays were as followed: ACSS1/ACSS2—Acetate, AACS-Acetoacetyl, ACSF2—Octanoate and ACSL5—Palmitate. The protein in this panel include ACSS1, the closest homolog of ACSS2, in addition to representative short/medium/long chain acyl-CoA syntatases.

The target in a further test is T2, ACSL5 (Homo sapiens, UniProt Q9ULC5).
T2 construct: purchased Cusabio, China
T2 sequence (Q9ULC5 1-683): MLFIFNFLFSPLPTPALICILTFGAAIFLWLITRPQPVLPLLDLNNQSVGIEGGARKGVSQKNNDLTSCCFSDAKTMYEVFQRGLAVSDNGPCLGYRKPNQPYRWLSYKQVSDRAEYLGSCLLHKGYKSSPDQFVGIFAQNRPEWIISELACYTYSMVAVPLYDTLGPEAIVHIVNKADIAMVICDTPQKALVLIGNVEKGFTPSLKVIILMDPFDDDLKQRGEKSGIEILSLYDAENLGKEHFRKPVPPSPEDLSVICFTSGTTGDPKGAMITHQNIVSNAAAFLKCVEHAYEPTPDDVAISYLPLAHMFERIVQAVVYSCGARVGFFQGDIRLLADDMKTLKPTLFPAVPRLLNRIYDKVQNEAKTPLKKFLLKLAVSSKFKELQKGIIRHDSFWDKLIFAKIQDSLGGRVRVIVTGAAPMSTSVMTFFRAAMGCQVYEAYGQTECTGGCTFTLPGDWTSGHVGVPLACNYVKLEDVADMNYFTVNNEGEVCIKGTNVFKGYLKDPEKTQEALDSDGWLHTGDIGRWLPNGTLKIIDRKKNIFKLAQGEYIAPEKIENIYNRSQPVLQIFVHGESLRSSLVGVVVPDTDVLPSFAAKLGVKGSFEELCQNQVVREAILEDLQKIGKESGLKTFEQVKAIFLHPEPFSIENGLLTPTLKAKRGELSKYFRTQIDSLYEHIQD
The test can be described thus: Acyl-CoA synthetases selectivity panel: ACSL5. It counts as biochemical. Conditions: human recombinant protein, substrate palmitate, AMP readout by HPLC; read-out: HPLC based activity assays IC50 (UM) ACSL5.
Source text: as §1

Test [1] addresses T3, ACSS2 (Homo sapiens, UniProt Q9NR19). The test can be described thus: Acyl-CoA synthetases selectivity panel: ACSS2. It is filed as biochemical. Set-up: purchased Cusabio, China. Conditions: human recombinant protein, substrate acetate, AMP readout by HPLC; read-out: HPLC based activity assays IC50 (UM) ACSS2.
Source text: as §1

A further test has as its target T4, ACSF2 (Homo sapiens, UniProt Q96CM8).
T4 construct: purchased Cusabio, China
T4 sequence (Q96CM8 42-615): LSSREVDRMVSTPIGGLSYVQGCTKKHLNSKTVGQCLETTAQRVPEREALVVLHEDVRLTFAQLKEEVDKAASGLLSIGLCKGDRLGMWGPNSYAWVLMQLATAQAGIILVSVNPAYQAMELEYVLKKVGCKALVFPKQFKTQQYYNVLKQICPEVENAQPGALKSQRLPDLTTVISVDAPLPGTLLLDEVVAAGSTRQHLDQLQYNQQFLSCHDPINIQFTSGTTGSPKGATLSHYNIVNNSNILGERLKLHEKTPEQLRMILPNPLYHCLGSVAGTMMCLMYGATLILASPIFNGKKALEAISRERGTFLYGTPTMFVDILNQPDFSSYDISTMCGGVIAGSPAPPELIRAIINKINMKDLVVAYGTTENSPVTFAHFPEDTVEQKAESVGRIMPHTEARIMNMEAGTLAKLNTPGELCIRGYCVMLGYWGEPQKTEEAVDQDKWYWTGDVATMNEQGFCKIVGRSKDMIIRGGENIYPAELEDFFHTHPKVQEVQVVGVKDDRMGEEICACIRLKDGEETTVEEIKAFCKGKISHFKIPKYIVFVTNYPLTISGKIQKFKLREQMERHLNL
The test can be described thus: Acyl-CoA synthetases selectivity panel: ACSF2. It is filed as biochemical. Conditions: human recombinant protein, substrate octanoate, AMP readout by HPLC; read-out: HPLC based activity assays IC50 (UM) ACSF2.
Source text: as §1

In test [2] the target is T3, ACSS2. The test can be described thus: Thermal stabilization of recombinant ACSS2 protein (Nano-DSF). It counts as binding. The text has this:
Thermal stabilization of recombinant ACSS2 protein by ACSS2 inhibitors. Interaction between the compound and recombinant ACSS2 protein was done by non-labeled Nano-DSF technic using the parameters described below. NanoDSF is a modified differential scanning fluorimetry method to determine protein stability that uses tryptophan or tyrosine fluorescence to monitor protein unfolding. The binding of compound to the protein leads to thermal stabilization that is quantified as the delta in the thermal melting points.
(DSF heats the sample and reads unfolding from a dye or from intrinsic fluorescence.)

SMILES strings stand for the structures. Where only a bound is given, the exact number is not on record here.

T3 sequence (Q9NR19 whole entry): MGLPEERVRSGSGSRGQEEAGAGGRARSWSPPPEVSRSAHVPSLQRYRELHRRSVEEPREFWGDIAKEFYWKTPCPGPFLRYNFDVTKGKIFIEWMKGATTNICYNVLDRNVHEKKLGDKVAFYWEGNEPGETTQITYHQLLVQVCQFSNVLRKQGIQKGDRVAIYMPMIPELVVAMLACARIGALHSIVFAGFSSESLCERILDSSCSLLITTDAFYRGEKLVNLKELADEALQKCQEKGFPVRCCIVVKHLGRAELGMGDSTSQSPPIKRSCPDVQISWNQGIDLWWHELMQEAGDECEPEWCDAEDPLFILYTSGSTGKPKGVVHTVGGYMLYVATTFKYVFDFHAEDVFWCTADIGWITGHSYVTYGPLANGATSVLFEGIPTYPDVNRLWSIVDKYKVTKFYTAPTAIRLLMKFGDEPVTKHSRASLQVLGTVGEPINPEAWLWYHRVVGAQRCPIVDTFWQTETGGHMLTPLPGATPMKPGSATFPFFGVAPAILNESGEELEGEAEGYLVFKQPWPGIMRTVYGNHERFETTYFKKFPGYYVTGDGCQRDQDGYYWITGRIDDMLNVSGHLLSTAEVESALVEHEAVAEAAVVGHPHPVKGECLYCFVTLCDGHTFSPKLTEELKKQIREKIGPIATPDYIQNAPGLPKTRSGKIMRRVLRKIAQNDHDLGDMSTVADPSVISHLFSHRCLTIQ

In general, IC50 refers to the concentration at which inhibition is half-maximal. `COC(=O)c1cccc(N2N=C(C)C(C(=O)Nc3cccc(C(C)(F)F)c3)C2=O)c1` (stereo not drawn) [compound 261, methyl 3-(4-((3-(1,1-difluoroethyl)phenyl)carbamoyl)-3-methyl-5-oxo-4,5-dihydro-1H-pyrazol-1-yl)benzoate]: the IC50 is 24 µM on AACS, above 100 µM at ACSL5, below 0.001 µM on ACSS2 [1] and 46 µM at ACSF2. Also, at ACSS2 [2] (0.03 mg/ml ACSS2, compound at different concentrations), the “thermal shift in the melting temperature of ACSS2” value is on record as “dose-dependent thermal shift in the melting temperature of ACSS2”. Moreover, the “thermal shift in the presence of ATP or ATP and CoA versus buffer alone” value at ACSS2 [2] (0.3 mM ATP, 0.3 mM ATP + 0.01 mM CoA) was “higher in the presence of ATP or ATP and CoA”.

Values taken from patent US20250186433A1, “ACSS2 INHIBITORS AND METHODS OF USE THEREOF” (EpiVario, Inc., priority 2017, published 2025).
